Reference: US11505558B1, “Antiviral heterocyclic compounds” (Enanta Pharmaceuticals, Inc., priority 2019, dated 2022)

System: genotype A, "Long" strain RSV
Test: RSV-A assay (CPE, ATPlite readout in Hep-2 cells)
Format: cell-based
Conditions: human respiratory syncytial virus, HEp-2, Hep-2 cells, genotype A "Long" strain RSV, MOI 0.1; read-out: Human RSV-A (“Long” strain) EC50
Excerpt: Hep-2 cells, (originally derived from tumors grown in irradiated-cortisonised weanling rats that had been injected with epidermoid carcinoma tissue from a person's larynx, but later found to be indistinguishable from HeLa cells by PCR DNA analysis), were used for the culturing of genotype A, “Long” strain RSV. Flasks were inoculated with RSV and viral stocks were collected once cytopathic effect (CPE) was greater than […]. Viral stocks in […] sucrose media were snap frozen using liquid nitrogen to increase viral stability. Viral stock titers were quantified by tissue culture infectious dose 50% (TCID50) using 8,000 cells per well and 3-fold viral dilutions across a 96-well plate, cultured for 4 days. Viral stock titers were also quantified by a plaque forming unit assay, as described elsewhere.
Following extensive parameter testing, the final assay is run as follows: Hep-2 cells are seeded into the inner 60 wells of a 96-well plate at 8,000 cells per well in a volume of 50 μL using Growth Media (DMEM without phenol red, 1% L-Glut, 1% Penn/Strep, 1% nonessential amino acids, 10% heat-inactivated FBS). 2-fold serial dilutions of control and test compounds are added to the wells in duplicate in a total volume of 25 μL. Viral stock is then added to the wells at a multiplicity of infection (MOI) of 0.1 in a volume of 25 μL, bringing the total volume of each well to 100 μL. The MOI is calculated using the PFU/mL, or TCID50 if unavailable. Each 96-well plate has a control column of 6 wells with cells and virus but no compound (negative control, max CPE), a column with cells but no compound or virus (positive control, minimum CPE), and a column with no cells or virus or compound (background plate/reagent control). The control wells with cells but no virus are given an additional 25 μL of growth media containing an equal quantity of sucrose as those wells receiving the viral stock in order to keep consistent in media and volume conditions. The outer wells of the plate are filled with 125 μL of moat media (DMEM, 1% Penn/Strep) to act as a thermal and evaporative moat around the test wells. Following a 5-day incubation period, the plates are read using ATPlite (50 uL added per well), which quantifies the amount of ATP (a measure of cell health) present in each well. Assay plates are read using the Envision luminometer. […] EC50 ranges are as follows: A<0.2 μM; B>0.2 μM.

Row | Structure (SMILES) | EC50
1 | C[C@]1(C(N)=O)COc2c1cc([C@@](O)(CNC(=O)c1ccc(-c3ccncc3C(F)(F)F)c(OC3CC3)c1)C(F)(F)F)nc2-c1ccc(F)cc1 [Example 154] | > 200 nM
2 | COc1cc(Nc2cc(C(=O)NC[C@](O)(c3cc4c(c(-c5ccc(F)cc5)n3)OC[C@]4(C)C(N)=O)C(F)(F)F)cc3cccnc23)nc(OC)n1 [Example 345] | > 200 nM
3 | COc1cc(C(=O)NC[C@](O)(c2cc3c(c(-c4ccc(F)cc4)n2)OC[C@]3(C)C(=O)NCC(F)(F)F)C(F)(F)F)cc2cccnc12 [Example 48] | < 200 nM
4 | CCn1cc2cc(C(=O)NC[C@](O)(c3cc4c(c(-c5ccc(F)cc5)n3)OC[C@]4(C)C(N)=O)C(F)(F)F)ccc2n1 [Example 655] | < 200 nM
5 | Cc1nnc2ccc(C(=O)NC[C@](O)(c3cc4c(c(-c5ccc(F)cc5)n3)OC[C@]4(C)C(N)=O)C(F)(F)F)cc2c1C [Example 231] | > 200 nM
6 | COc1cc(C(=O)NC[C@](O)(c2cc3c(c(-c4ccc(F)cc4)n2)NC[C@]3(C)CO)C(F)(F)F)ccc1OCCO [Example 650] | < 200 nM
7 | COc1cc(C(=O)NC[C@](O)(c2cc3c(c(-c4ccc(F)cc4)n2)OC[C@]3(C)C(N)=O)C(F)(F)F)ccc1-c1nnco1 [Example 200] | < 200 nM
8 | C[C@]1(C(N)=O)COc2c1cc([C@@](O)(CNC(=O)c1cc(N)c3ncccc3c1)C(F)(F)F)nc2-c1ccc(F)cc1 [Example 279] | < 200 nM
9 | C[C@]1(C(N)=O)COc2c1cc([C@@](O)(CNC(=O)c1ccc(OC3CC3)c(-c3ccc(C(F)(F)F)nc3)c1)C(F)(F)F)nc2-c1ccc(F)cc1 [Example 118] | > 200 nM
10 | COc1cc(C(=O)NC[C@](O)(c2cc3c(c(-c4ccc(F)cc4)n2)OC[C@]3(C)C(N)=O)C(F)(F)F)ccc1OCCN1CCCCC1 [Example 189] | > 200 nM
11 | COc1cc(C(=O)NC[C@](O)(c2cc3c(c(-c4ccc(F)cc4)n2)OC[C@]3(C)C(=O)NC23CC(F)(C2)C3)C(F)(F)F)cc2cccnc12 [Example 55] | < 200 nM
12 | COc1cc(C(=O)NC[C@](O)(c2cc3c(c(-c4ccc(F)cc4)n2)OC[C@]3(F)C(N)=O)C(F)(F)F)ccc1OC1CC1 [Example 666] | < 200 nM
13 | COc1cc(C(=O)NC[C@](O)(c2cc3c(c(-c4ccc(F)cc4)n2)OC[C@]3(C)CNCC2CC2)C(F)(F)F)ccc1OC(F)F [Example 41] | > 200 nM
14 | CNc1nc2ccc(C(=O)NC[C@](O)(c3cc4c(c(-c5ccc(F)cc5)n3)OC[C@]4(C)C(N)=O)C(F)(F)F)cc2s1 [Example 439] | < 200 nM
15 | Cc1cnc2c(OC3CC3)cc(C(=O)NC[C@](O)(c3cc4c(c(-c5ccc(F)cc5)n3)OC[C@]4(C)C(=O)NCC(C)(C)O)C(F)(F)F)cc2c1 [Example 499] | < 200 nM
16 | C[C@]1(C(N)=O)COc2c1cc([C@@](O)(CNC(=O)c1ccc3cc[nH]c3n1)C(F)(F)F)nc2-c1ccc(F)cc1 [Example 306] | > 200 nM
17 | Cc1cnc2c(NC(=O)NNCC(C)(C)O)cc(C(=O)NC[C@](O)(c3cc4c(c(-c5ccc(F)cc5)n3)OC[C@]4(C)C(N)=O)C(F)(F)F)cc2c1 [Example 632] | < 200 nM
18 | Cc1nc(COc2cc(C(=O)NC[C@](O)(c3cc4c(c(-c5ccc(F)cc5)n3)OC[C@]4(C)C(N)=O)C(F)(F)F)cc3cccnc23)co1 [Example 391] | > 200 nM
19 | C[C@]1(C(N)=O)COc2c1cc([C@@](O)(CNC(=O)c1ccc(OC3CC3)c(N3CCCCC3)c1)C(F)(F)F)nc2-c1ccc(F)cc1 [Example 134] | > 200 nM
20 | COc1cc(C(=O)NC[C@](O)(c2cc3c(c(C#Cc4cccc(Cl)c4F)n2)OC[C@]3(C)C(N)=O)C(F)(F)F)ccc1OC1CC1 [Example 513] | > 200 nM
21 | C[C@]1(C(N)=O)COc2c1cc([C@@](O)(CNC(=O)c1cc(OCCN)c3ncccc3c1)C(F)(F)F)nc2-c1ccc(F)cc1 [Example 356] | > 200 nM
22 | C[C@]1(C(N)=O)COc2c1cc([C@@](O)(CNC(=O)c1ccc(OC3CC3)c(-c3cnccc3C(F)(F)F)c1)C(F)(F)F)nc2-c1ccc(F)cc1 [Example 139] | > 200 nM
23 | C[C@]1(C(N)=O)COc2c1cc([C@@](O)(CNC(=O)c1ccc(OC3CC3)c(-c3nccs3)c1)C(F)(F)F)nc2-c1ccc(F)cc1 [Example 125] | < 200 nM
24 | CNC(=O)Nc1cc(C(=O)NC[C@](O)(c2cc3c(c(-c4ccc(F)cc4)n2)OC[C@]3(C)C(N)=O)C(F)(F)F)cc2cccnc12 [Example 409] | < 200 nM

Row | Structure (SMILES) | EC50
25 | C[C@]1(C(N)=O)COc2c1cc([C@@](O)(CNC(=O)c1cc3cccnc3cc1Cl)C(F)(F)F)nc2-c1ccc(F)cc1 [Example 241] | > 200 nM
26 | C[C@](F)(CNC(=O)c1cc(OC2CC2)c2ncccc2c1)c1cc2c(c(-c3ccc(F)cc3)n1)OC[C@]2(C)C(N)=O [Example 545] | > 200 nM
27 | C[C@]1(C(N)=O)COc2c1cc([C@@](O)(CNC(=O)c1ccc3nc(N)sc3c1)C1CC1)nc2-c1ccc(F)cc1 [Example 441] | < 200 nM
28 | C[C@]1(C(=O)NC2(C#N)CC2)COc2c1cc([C@@](O)(CNC(=O)c1cc(OC3CC3)c3ncccc3c1)C(F)(F)F)nc2-c1ccc(F)cc1 [Example 450] | < 200 nM
29 | Cc1cnc2c(NC(=O)c3ncc(C)o3)cc(C(=O)NC[C@](O)(c3cc4c(c(-c5ccc(F)cc5)n3)OC[C@]4(C)C(N)=O)C(F)(F)F)cc2c1 [Example 630] | < 200 nM
30 | CC(C)(O)CCNC(=O)[C@@]1(C)COc2c1cc([C@@](O)(CNC(=O)c1cc(OC3CC3)c3ncccc3c1)C(F)(F)F)nc2-c1ccc(F)cc1 [Example 483] | < 200 nM
31 | C[C@]1(C(N)=O)COc2c1cc([C@@](O)(CNC(=O)c1ccc(-c3ncco3)c(OC3CC3)c1)C(F)(F)F)nc2-c1ccc(F)cc1 [Example 171] | < 200 nM
32 | COc1cc(C(=O)NC[C@](O)(c2cc3c(c(-c4ccc(F)cc4)n2)OC[C@]3(C)C(N)=O)C(F)(F)F)ccc1O [Example 310] | < 200 nM
33 | C[C@]1(C(N)=O)COc2c1cc([C@@](O)(CNC(=O)c1n[nH]c3ccncc13)C(F)(F)F)nc2-c1ccc(F)cc1 [Example 293] | > 200 nM
34 | COc1cc(C(=O)NC[C@](O)(c2cc3c(c(-c4ccc(F)cc4)n2)OC[C@]3(C)C(N)=O)C(F)(F)F)ccc1-c1cnoc1C [Example 185] | < 200 nM
35 | C[C@]1(CNCC2CC2)COc2c1cc([C@@](O)(CNC(=O)c1ccc3[nH]c(=O)[nH]c3c1)C(F)(F)F)nc2-c1ccc(F)cc1 [Example 40] | > 200 nM
36 | C[C@]1(C(=O)NCc2ccc[nH]2)COc2c1cc([C@@](O)(CNC(=O)c1cc(OC3CC3)c3ncccc3c1)C(F)(F)F)nc2-c1ccc(F)cc1 [Example 480] | < 200 nM
37 | C[C@]1(C(N)=O)COc2c1cc([C@@](O)(CNC(=O)c1cc3ccc(F)cc3[nH]1)C(F)(F)F)nc2-c1ccc(F)cc1 [Example 604] | < 200 nM
38 | C[C@]1(C(N)=O)COc2c1cc([C@@](O)(CNC(=O)c1ccc3c(c1)NCCO3)C(F)(F)F)nc2-c1ccc(F)cc1 [Example 607] | < 200 nM
39 | C[C@]1(C(=O)N2CC(O)C2)COc2c1cc([C@@](O)(CNC(=O)c1cc(OC3CC3)c3ncccc3c1)C(F)(F)F)nc2-c1ccc(F)cc1 [Example 470] | > 200 nM
40 | COc1cc(C(=O)NC[C@](O)(c2cc3c(c(-c4ccc(F)cc4)n2)OC[C@]3(C)C(=O)NC2(C(F)(F)F)CC2)C(F)(F)F)cc2cccnc12 [Example 51] | > 200 nM
41 | C[C@]1(C(N)=O)COc2c1cc([C@@](O)(CNC(=O)c1cc(Nc3ccncn3)c3ncccc3c1)C(F)(F)F)nc2-c1ccc(F)cc1 [Example 343] | < 200 nM
42 | C[C@]1(C(=O)NCCNC(N)=O)COc2c1cc([C@@](O)(CNC(=O)c1cc(OC3CC3)c3ncccc3c1)C(F)(F)F)nc2-c1ccc(F)cc1 [Example 478] | > 200 nM
43 | Cc1cccc(-c2ccc(C(=O)NC[C@](O)(c3cc4c(c(-c5ccc(F)cc5)n3)OC[C@]4(C)C(N)=O)C(F)(F)F)cc2OC2CC2)n1 [Example 158] | > 200 nM
44 | C[C@]1(C(=O)NCCC2(O)CC2)COc2c1cc([C@@](O)(CNC(=O)c1cc(OC3CC3)c3ncccc3c1)C(F)(F)F)nc2-c1ccc(F)cc1 [Example 491] | < 200 nM
45 | C[C@]1(C(N)=O)COc2c1cc([C@@](O)(CNC(=O)c1ccc3ncncc3c1)C(F)(F)F)nc2-c1ccc(F)cc1 [Example 248] | < 200 nM
46 | Cc1cnc(-c2cc(C(=O)NC[C@](O)(c3cc4c(c(-c5ccc(F)cc5)n3)OC[C@]4(C)C(N)=O)C(F)(F)F)ccc2OC2CC2)cn1 [Example 115] | < 200 nM
47 | C[C@]1(C(N)=O)COc2c1cc([C@@](O)(CNC(=O)c1ccc3nc(N)oc3c1)C(F)(F)F)nc2-c1ccc(F)cc1 [Example 425] | < 200 nM
48 | C[C@]1(C(N)=O)COc2c1cc([C@@](O)(CNC(=O)c1cc(Nc3ccccn3)c3ncccc3c1)C(F)(F)F)nc2-c1ccc(F)cc1 [Example 338] | < 200 nM
